Assay results: PMC9982066, “Inhibition of Ehrlichia chaffeensis infection by cell-permeable macrocyclic peptides that bind type IV secretion effector Etf-1” (PNAS Nexus, 2023)
Like-named read-outs stand apart in the source and are kept apart here. Starred links: 1 amine or outer side, 2 acyl side, 3 side chain; linkers in the order of their positions; H or OH if unused. Positions of bridges follow the written chain, without caps; N, C: chain ends. Non-standard residues stand in square brackets, D forms with d. Residues, ends and D or L forms follow the SMILES beside them. Trimesoyl = O=C(c1cc(C(=O)[*:2])cc(C(=O)[*:3])c1)[*:1]; Phe(4-Cl) = N[C@@H](Cc1ccc(Cl)cc1)C(=O)O; 2Nal = N[C@@H](Cc1ccc2ccccc2c1)C(=O)O; d2Nal = N[C@H](Cc1ccc2ccccc2c1)C(=O)O; Phg = N[C@H](C(=O)O)c1ccccc1; d(β3hA) = C[C@@H](N)CC(=O)O; Dap = NC[C@H](N)C(=O)O

Key:
[1] = target: T1, Etf-1 (Ehrlichia chaffeensis, UniProt Q2GG12); assay: FP assay of Etf-1 binding with FAM-labeled peptides
T1 sequence (Q2GG12 entry or part of it): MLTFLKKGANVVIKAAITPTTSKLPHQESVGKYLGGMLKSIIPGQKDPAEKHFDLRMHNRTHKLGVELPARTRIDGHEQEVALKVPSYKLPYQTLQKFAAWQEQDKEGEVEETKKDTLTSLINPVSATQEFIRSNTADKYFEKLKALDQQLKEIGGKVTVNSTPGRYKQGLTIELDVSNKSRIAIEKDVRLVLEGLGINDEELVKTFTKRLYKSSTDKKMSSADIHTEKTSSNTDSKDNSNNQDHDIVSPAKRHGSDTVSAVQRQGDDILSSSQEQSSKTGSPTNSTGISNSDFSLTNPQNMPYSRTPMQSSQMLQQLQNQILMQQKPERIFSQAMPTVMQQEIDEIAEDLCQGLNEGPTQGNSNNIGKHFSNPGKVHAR
Description: The peptides were labeled at their C-terminus with carboxyfluorescein (FAM) through a β-Ala-β-Ala-Lys linker and evaluated for binding to Etf-1 by using a fluorescence polarization (FP) assay. […] This outcome is not unexpected, as screening OBOC libraries is often complicated by false positives, due to the presence of high ligand densities on library beads ([28]).
(§1) Fig. 2. Determination of binding affinity of Etf-1-binding peptides by FP assay. […] FAM-labeled peptide (50 nM) was incubated with serially diluted Etf-1 (starting from 25–30 μM in PBS, pH 7.4, supplemented with 5 mM DTT and 0.01% Triton X-100) for 1 h at RT. FP values were measured on a Tecan Infinite M1000 Pro plate reader. Titration curves (n ≥ 3) were fitted using GraphPad Prism and analyzed with TraceDrawer to calculate dissociation constants (KD). […] Data were analyzed using GraphPad Prism and fitted to a four-parameter variable slope equation to determine IC50 values.
Etf-1 and macrocyclic peptides were serially diluted in PBS supplemented with 5 mM DTT and 0.01% Triton X-100 (v/v). FAM-labeled peptides (50 nM) were prepared from a 10-μM DMSO stock and incubated with serially diluted Etf-1 for 1 h at room temperature (RT). Twenty microliters of the solutions were transferred to a black 384-well plate (Greiner Bio-One) and FP values were measured on a Tecan Infinite M1000 Pro plate reader with excitation and emission wavelengths at 470 and 535 nm, respectively. Titration curves (n ≥ 3) were fitted using GraphPad Prism v8.0 (GraphPad, La Jolla, CA, USA), and analyzed with TraceDrawer software v1.8 (Ridgeview Instruments AB, Uppsala, Sweden) to calculate the dissociation constant (KD, in nM).

[2] = system: E. chaffeensis; assay: morphological examination of E. chaffeensis infection of THP-1 cells by Diff-Quik staining; conditions: for E. chaffeensis infection (numbers and sizes of morulae): THP-1 cells, Fig. S4 (with Figs. 5, S3)
[3] = system: BECN1 binding to Etf-1; assay: streptavidin magnetic beads pull-down of BECN1 with biotin-Etf-1, Western blot; assay type: biochemical; conditions: 10 µM peptide; for BECN1/Etf-1 Ratio: band intensities, DMSO control set as 1, Fig. 8B
Description: Fig. 8.
Streptavidin magnetic beads (15 µL, Pierce, Rockford, IL, USA) were washed with 1 mL of Bind/Wash buffer (25 mM Tris, pH 7.4; 250 mM NaCl, 0.1% Tween 20), and incubated with 0.15 µg ([…] final concentration) of biotinylated full-length Etf-1 protein in bind/wash buffer at 4°C overnight with end-to-end rotation. Beads were washed three times with Bind/Wash buffer, then incubated with Etf-1-binding macrocyclic peptides (10 µM) or DMSO control in Bind/Wash buffer at room temperature for 2 h. […] Beads were washed three times, and proteins were eluted from the beads with 50 µL of 2× SDS-sample buffer. […] Reacting bands were visualized with enhanced chemiluminescence by incubating the membrane with LumiGLO chemiluminescent reagent (Thermo Fisher Scientific). Images were captured by Amersham Imager 680 (GE Healthcare) and densitometry analysis was performed using ImagQuaNT (GE Healthcare). In each specimen, band intensities were normalized against those of actin as the loading control, and the ratios of the treatment group to the control group were calculated with the value in the control groups arbitrarily set as 1.0.

[4] = system: E. chaffeensis; assay: E. chaffeensis infection of THP-1 cells, qPCR of 16S rRNA gene normalized to human actin; assay type: cell-based, Ehrlichia chaffeensis; conditions: for inhibition of E. chaffeensis infection: 10 μM, 2 days, vs DMSO control
[5] = system: Etf-1-GFP; assay: mitochondrial localization of ectopically expressed Etf-1-GFP in RF/6A cells; assay type: cell-based, Ehrlichia chaffeensis; conditions: 10 μM, 2 days
Description: For mitochondria localization analysis, RF/6A cells were seeded onto a cover glass in a 12-well plate for 3 h, then infected with E. chaffeensis at ∼30 MOI. Alternatively, cells were transfected with Etf-1-GFP or Etf-1-DsRed plasmids using Fugene HD (Promega) or by electroporation at 100 V and 1,000 µF using the Gene Pulser Xcell System (BioRad) according to the manufacturers’ instructions ([16]). […] To examine the roles of macrocyclic peptides on Etf-1 localization on E. chaffeensis inclusions, infected RF/6A cells were treated with 10 μM peptides at 3 h pi for 2 days. At 2 days pi or pt, cells were washed 3 times with PBS, then fixed in 4% PFA for 20 min. Native Etf-1 and mitochondria marker cytochrome C proteins were labeled with rabbit anti-Etf-1 IgG and mouse anti-cytochrome C, then with AF488-conjugated goat anti-rabbit and anti-mouse secondary antibodies in PGS (PBS with 0.1% gelatin and 0.1% saponin) for 1 h each at RT. Host-cell and Ehrlichial DNAs were stained with 300 nM DAPI, and fluorescence with differential interference contrast images were observed and captured with a DeltaVision deconvolution microscope (Applied Precision, Issaquah, WA, USA). Percentages of Etf-1 protein colocalization with macrocyclic peptides or E. chaffeensis inclusions were quantified by counting 10–20 cells per group from three independent experiments.

[6] = target: T1, Etf-1; assay: biochemical; assay type: binding; conditions: for competition for Etf-1 binding: unlabeled competitor peptides vs FAM-B7-133-8
Description: as §1
Serial dilutions of competitor peptide (0-20 μM) were prepared from DMSO stock solutions into PBS containing 0.01% Triton-X100 and 2 mM TCEP and added to aliquots of the equilibrated Etf-1/probe solution. After incubation for 1 h in the dark and with gentle mixing, 20 μL of each sample was transferred into 384-well black-on-black microplates and FP was measured using a TECAN Infinite M1000 plate reader. Data were analyzed using GraphPad PRISM ver. 8.0 and fit to a four-parameter variable slope equation to determine IC50 values. IC50 values reported are the mean ± SD of n = 2–4 independent experiments.

[7] = serum stability assay (UPLC); assay type: in vitro ADME; conditions: 25% (v/v) in DPBS; 25% human serum, 37°C, after 22 h; read-out: degradation
Description: In comparison, the linear peptide Tat (cell-permeable peptide of HIV) was completely degraded within the first 120 min of incubation (Fig. 4B).
Human serum was diluted to 25% (v/v) in sterile DPBS and equilibrated at 37°C for 15 min. Peptides were added to the diluted serum to a final concentration of 20 μM and incubated at 37°C with gentle mixing. At designated time points, 30 μL aliquots were withdrawn and mixed with 30 μL of 15% trichloroacetic acid in MeOH (w/v) and 30 μL of MeCN and stored at 4°C overnight to completely precipitate the serum proteins. Next, each aliquot was centrifuged (15,000g, 5 min, 4°C) and 14 μL of the supernatant was injected in an UPLC equipped with an analytical Waters Acquity UPLC BEH C18 column (1.7 μm, 2.1 mm I.D., 100 mm length) and an inline UV-Vis detector and a single quadrupole mass detector. The column was eluted with a linear gradient of 20–50% MeCN in ddH2O containing 0.1% TFA. A UV/Vis detector at 214 nm and the mass spec quantifying the ion counts corresponding to the [M + 3H]^3+ ion of the analytes were used to analyze the samples. The area under the peak of interest was obtained by integration, normalized to that of the peptide at t = 0, and plotted as a function of the incubation time to determine the serum half-life of the peptide.

[8] = LDH release assay (plasma membrane damage); assay type: cell-based; conditions: Fig. S2
Description: LDH release assay (Promega) was performed to assess the level of plasma membrane damage in a cell population by these compounds. […] Control wells contained 10 μL of lysis buffer, cell-free complete growth media, or positive LDH control. Following incubation at 37°C and 5% CO2 for 45 to 75 min, the culture was centrifuged and 50 μL of the growth medium was withdrawn from each well, transferred to a clear 96-well plate, mixed with 50 μL of LDH substrate mixture, and incubated at RT for 30 min with gentle mixing. Finally, 50 μL of 1 N HCl was added to each well, and the absorbances at 490 and 680 nm were immediately measured on a Tecan Infinite M1000 plate reader. Relative membrane leakage was calculated and plotted using GraphPad Prism v8.0.

[9] = system: THP-1 cells; assay: CellTiter-Glo luminescent cell viability assay; conditions: 20 μM, 2-day treatment
Description: THP-1 (human promyelocytic leukemia) cells are widely used as E. chaffeensis infection studies of human monocytes in vitro, since initial characterization of infection ([31]).
Fig. 4. Cytotoxicity and proteolytic stability of Etf-1-binding peptides. (A) Effect of Etf-1-binding peptides on the viability of THP-1 cells as determined by CellTiter-Glo luminescent assay. Relative luminescence was plotted as function of the peptide concentration, with the cell viability of DMSO control group set as 100%. (B) Plot of the amount of intact peptide remaining as a function of the incubation time in 25% human serum. All values are normalized to that of peptide at time 0 (100%).
Cytotoxicity of Etf-1-binding peptides was examined by CellTiter-Glo luminescent cell viability assay (Promega, Madison, WI, USA). THP-1 cells were seeded in a transparent 96-well plate at a density of 5 × 10^3 cells/well (100 μL in each well) in RPMI-1640 containing 10% FBS and 1% antibiotics and cultured overnight. Etf-1-binding peptides were serially diluted in DPBS from a DMSO stock and added to the cells with the final concentration of 0–25 μM and a constant final concentration of 0.5% DMSO (v/v). After incubation at 37°C with 5% CO2 for 46 h, the plate was removed and pre-equilibrated to RT before the addition of 100 μL of the CellTiter-Glo 2.0 reagent to each well. The plate was incubated for 15 min on a rotary shaker in the dark, and the luminescence was detected (1-s integration time) on a Tecan Infinite M1000 Pro microplate reader. Relative luminescence was plotted as function of the peptide concentration, with the cell viability of DMSO control group set as 100%.

Row | Structure (SMILES) | Kd [1] | E. chaffeensis infection (numbers and sizes of morulae) [2] | BECN1/Etf-1 Ratio [3] | inhibition of E. chaffeensis infection [4] | effect on mitochondrial localization of Etf-1-GFP [5] | IC50 [6] | competition for Etf-1 binding [6] | metabolised at 22 h, 20 µM [7] | cytotoxicity (cell lysis in treated groups) [2] | release of lactate dehydrogenase (LDH) [8] | disruption of BECN1 binding to Etf-1 ([3]; compared to DMSO control) | dose dependence of inhibition of E. chaffeensis infection ([4]; 1, 5, and 10 μM) | inhibition of E. chaffeensis infection compared with peptide B7 (or B7-16) ([4]; THP-1 cells) | cytotoxicity (cell lysis in treated groups) ([2]; THP-1 host cells) | cell viability [9]
1 | C[C@H]1NC(=O)[C@H](CO)NC(=O)[C@@H](CCC(=O)O)NC(=O)c2cc3cc(c2)C(=O)NC[C@H](NC(=O)[C@H](CO)NC(=O)[C@H](Cc2c[nH]cn2)NC(=O)[C@@H](Cc2ccccc2)NC1=O)C(=O)N[C@H](Cc1ccccc1)C(=O)N[C@@H](Cc1ccc2ccccc2c1)C(=O)N[C@@H](CCCNC(=N)N)C(=O)N[C@H](CCCNC(=N)N)C(=O)N[C@@H](CCCNC(=N)N)C(=O)N[C@H](CCCNC(=N)N)C(=O)N[C@H](C(N)=O)CNC3=O [Peptide C17, TMA-glu-Ser-ala-phe-His-Ser-Dap-phe-Nal-Arg-arg-Arg-arg-Dap] ([dE]S[dA][dF]HS[Dap][dF][2Nal]R[dR]R[dR][Dap]-NH2; linker N-7-14 via Trimesoyl) | > 25 µM | did not inhibit | 1.17 | no effect | neither peptide B7 nor C17 affected mitochondrial localization |  |  |  |  |  |  |  |  |  | 
2 | CC(C)C[C@H]1NC(=O)[C@H]2CCCN2C(=O)C[C@@H](C)NC(=O)[C@H](CCC(N)=O)NC(=O)[C@@H](Cc2ccc3ccccc3c2)NC(=O)[C@H](Cc2ccc(O)cc2)NC(=O)c2cc3cc(c2)C(=O)NC[C@H](NC1=O)C(=O)N[C@@H](Cc1ccc(Cl)cc1)C(=O)N[C@H](Cc1ccc2ccccc2c1)C(=O)N[C@H](CCCNC(=N)N)C(=O)N[C@@H](CCCNC(=N)N)C(=O)N[C@H](CCCNC(=N)N)C(=O)N[C@@H](CCCNC(=N)N)C(=O)N[C@H](C(N)=O)CNC3=O [Peptide B7-133-8, TMA-Tyr-nal-Gln-homoAla-pro-leu-Dap-4-ClPhe-nal-arg-Arg-arg-Arg-Dap] (Y[d2Nal]Q[d(β3hA)][dP][dL][Dap][Phe(4-Cl)][d2Nal][dR]R[dR]R[Dap]-NH2; linker N-7-14 via Trimesoyl) |  | significantly inhibited | 0.19 | significantly inhibited |  | 0.11 ± 0.02 µM | Competition for Etf-1 binding was observed | < 20% | certain degrees of cytotoxicity | significant release of lactate dehydrogenase | disrupted BECN1 binding to Etf-1 | dose-dependent manner | significantly more potent inhibition |  | 
3 | CC(C)C[C@H]1NC(=O)[C@H](c2ccccc2)NC(=O)[C@H](CO)NC(=O)[C@@H](Cc2ccc3ccccc3c2)NC(=O)[C@@H](CC(N)=O)NC(=O)[C@H](Cc2ccc(O)cc2)NC(=O)c2cc3cc(c2)C(=O)NC[C@H](NC(=O)[C@@H](CC(C)C)NC1=O)C(=O)N[C@@H](Cc1ccc(Cl)cc1)C(=O)N[C@H](Cc1ccc2ccccc2c1)C(=O)N[C@H](CCCNC(=N)N)C(=O)N[C@@H](CCCNC(=N)N)C(=O)N[C@H](CCCNC(=N)N)C(=O)N[C@@H](CCCNC(=N)N)C(=O)N[C@H](C(N)=O)CNC3=O [Peptide B7-131-1, TMA-Tyr-asn-nal-Ser-Phg-leu-leu-Dap-4-ClPhe-nal-arg-Arg-arg-Arg-Dap] (Y[dN][d2Nal]S[Phg][dL][dL][Dap][Phe(4-Cl)][d2Nal][dR]R[dR]R[Dap]-NH2; linker N-8-15 via Trimesoyl) |  | significantly inhibited |  | significantly inhibited |  |  | Competition for Etf-1 binding was observed | < 20% |  | significant release of lactate dehydrogenase |  |  |  | certain degrees of cytotoxicity | greater loss of cell viability
